Measurements: paper PMC3018327 (Nature immunology, 2010)

What was measured:
[1] = biological target: HLA-DM (Homo sapiens, UniProt P28067+P28068, N110D/N191D); assay: SPR; settings: complexes 5 μM injected 2 min, pH 5.35, 15 μl/min, 25 °C, Fig. 4d-f
[2] = tested on: DM-DR2 complex; assay: SPR peptide-induced dissociation of the complex of DM and empty DR2; type: binding, human; settings: SPR stage 3, peptide 1 μM, pH 5.35, 30 °C; Fig. 1e
[3] = tested on: DR4; settings: cited from earlier work
[4] = tested on: DR1; settings: cited from earlier work
[5] = tested on: DR1 linked to DM; settings: leucine zipper dimerization domains attached to DMβ and DRβ chains; cited from earlier work

Chain of HLA-DM (P28067 27-233 N191D): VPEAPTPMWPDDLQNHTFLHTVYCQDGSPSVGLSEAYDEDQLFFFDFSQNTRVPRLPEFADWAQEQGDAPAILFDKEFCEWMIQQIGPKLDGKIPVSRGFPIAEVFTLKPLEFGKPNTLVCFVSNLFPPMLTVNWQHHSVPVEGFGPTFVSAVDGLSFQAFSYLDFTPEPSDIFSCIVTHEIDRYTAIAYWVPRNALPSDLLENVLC
Chain of HLA-DM (P28068 19-218 N110D): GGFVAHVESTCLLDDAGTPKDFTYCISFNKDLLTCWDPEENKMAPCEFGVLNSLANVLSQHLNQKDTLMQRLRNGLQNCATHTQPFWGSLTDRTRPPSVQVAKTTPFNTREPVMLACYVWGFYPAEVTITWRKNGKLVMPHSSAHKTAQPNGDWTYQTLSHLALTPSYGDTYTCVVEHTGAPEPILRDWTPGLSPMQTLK

Row | Substance | DM binding of DR1 complexes with disulfide-linked HA6 or HA3 peptides [1] | also measured
1 | CQNTLKLAT [HA3 P3 P11] | appeared to slow DM binding | 
2 | KYVKQNCLKLAT [HA6 P-1–P11] | not sufficient for DM binding | 
3 | MBP85-99: high-affinity peptide from myelin basic protein (amino acids 85–99) (PGSRPHLIRLFSRDA; UniProt P02686 85-99, looked up, fragment) |  | peptide-induced dissociation of DR2 from DM [2]: induced dissociation of DR2 from DM
4 | Me-YVCQNTLKLAT [HA3 P1me–P11] | did not permit DM binding | 
5 | PKAVKQNCLKLAT [HA6 P1A] | only low amounts of DM binding | 
6 | PVSKMRMATPLLMQA [CLIP] |  | affinity of CLIP for DR4 [3]: very low affinity; affinity of CLIP for DR1 [4]: high affinity; t1/2 of peptide dissociation from DR1 forcibly linked to DM [5]: 10 s
7 | VCQNTLKLAT [HA3 P2–P11] | rapid binding | 
8 | VKQNCLKLAT [HA6 P2–P11] | strong DM binding | 
9 | YVKQNCLKLAT [HA6 P1–P11] | not sufficient for DM binding | 
